Measurements as given in the kinase profiling compilation of Christmann-Franck et al. (2016).
One block for each compound: values may come before it.

How the values were obtained:
Assay in all cases: radiometric filter-binding kinase assay
BRSK1 (human) = BRSK1 (human) (UniProt Q8TDC3)
DYRK2 (human) = DYRK2 (human) (UniProt Q92630)
ERBB4 (human) = ERBB4 (human) (UniProt Q15303)
CHEK1 (human) = CHEK1 (human) (UniProt O14757)
PHKG1 (human) = PHKG1 (human) (UniProt Q16816)
MINK1 (human) = MINK1 (human) (UniProt Q8N4C8)
Sequence of MINK1 (human) (Q8N4C8 whole entry, looked up): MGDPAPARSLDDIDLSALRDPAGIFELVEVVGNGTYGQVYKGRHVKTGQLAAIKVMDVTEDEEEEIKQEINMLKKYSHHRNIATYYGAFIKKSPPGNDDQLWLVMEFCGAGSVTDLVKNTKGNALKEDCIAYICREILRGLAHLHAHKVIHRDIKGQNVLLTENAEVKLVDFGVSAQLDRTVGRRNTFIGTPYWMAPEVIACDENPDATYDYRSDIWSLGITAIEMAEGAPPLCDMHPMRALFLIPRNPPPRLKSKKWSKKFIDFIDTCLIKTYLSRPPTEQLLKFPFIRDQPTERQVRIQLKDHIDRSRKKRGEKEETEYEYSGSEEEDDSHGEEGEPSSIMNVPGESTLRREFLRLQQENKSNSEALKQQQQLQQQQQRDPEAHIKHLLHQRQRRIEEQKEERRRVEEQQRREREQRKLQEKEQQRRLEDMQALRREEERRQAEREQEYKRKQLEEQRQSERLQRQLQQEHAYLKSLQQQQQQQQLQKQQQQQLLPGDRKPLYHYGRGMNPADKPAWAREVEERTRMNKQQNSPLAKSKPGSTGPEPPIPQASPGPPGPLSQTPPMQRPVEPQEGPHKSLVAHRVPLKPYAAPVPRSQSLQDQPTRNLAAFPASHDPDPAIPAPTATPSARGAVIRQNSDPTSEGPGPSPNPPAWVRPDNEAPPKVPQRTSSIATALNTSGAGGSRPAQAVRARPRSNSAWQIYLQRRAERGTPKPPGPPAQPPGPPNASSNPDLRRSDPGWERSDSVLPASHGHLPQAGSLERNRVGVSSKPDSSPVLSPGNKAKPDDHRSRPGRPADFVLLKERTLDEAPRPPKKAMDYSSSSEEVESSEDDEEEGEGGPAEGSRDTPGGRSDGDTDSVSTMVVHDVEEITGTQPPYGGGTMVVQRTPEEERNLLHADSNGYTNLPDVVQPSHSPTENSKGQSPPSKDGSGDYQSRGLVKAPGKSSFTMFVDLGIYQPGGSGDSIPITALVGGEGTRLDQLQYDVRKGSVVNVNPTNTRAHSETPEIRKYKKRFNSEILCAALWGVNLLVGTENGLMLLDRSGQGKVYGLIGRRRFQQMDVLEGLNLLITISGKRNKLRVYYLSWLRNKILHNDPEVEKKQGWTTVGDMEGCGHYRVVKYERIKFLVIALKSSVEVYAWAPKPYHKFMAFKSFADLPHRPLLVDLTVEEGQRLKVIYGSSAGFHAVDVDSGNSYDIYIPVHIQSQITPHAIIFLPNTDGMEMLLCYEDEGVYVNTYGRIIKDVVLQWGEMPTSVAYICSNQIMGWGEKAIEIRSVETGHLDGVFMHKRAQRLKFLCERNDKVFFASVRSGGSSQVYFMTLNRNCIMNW

MAPK12 (human) = MAPK12 (human) (UniProt P53778)
MAPKAPK5 (human) = MAPKAPK5 (human) (UniProt Q8IW41)
Sequence of MAPKAPK5 (human) (Q8IW41 whole entry, looked up): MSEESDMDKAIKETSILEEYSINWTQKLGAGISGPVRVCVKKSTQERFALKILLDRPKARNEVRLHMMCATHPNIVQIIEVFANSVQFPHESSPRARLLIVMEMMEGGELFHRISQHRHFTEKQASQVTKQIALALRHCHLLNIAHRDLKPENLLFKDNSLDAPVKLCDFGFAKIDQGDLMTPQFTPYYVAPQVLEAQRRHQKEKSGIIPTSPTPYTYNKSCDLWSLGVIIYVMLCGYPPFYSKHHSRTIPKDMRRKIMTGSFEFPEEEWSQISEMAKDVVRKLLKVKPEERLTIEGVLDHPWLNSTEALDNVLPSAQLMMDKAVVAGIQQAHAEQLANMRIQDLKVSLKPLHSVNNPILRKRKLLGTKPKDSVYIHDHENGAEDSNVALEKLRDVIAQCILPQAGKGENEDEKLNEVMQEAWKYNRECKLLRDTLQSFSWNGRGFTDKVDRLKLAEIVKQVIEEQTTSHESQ

FGFR1 (human) = FGFR1 (human) (UniProt P11362)
INSRR (human) = INSRR (human) (UniProt P14616)
GCK (human) = GCK (human) (UniProt Q12851)
AURKB (human) = AURKB (human) (UniProt Q96GD4)
BTK (human) = BTK (human) (UniProt Q06187)
TAOK1 (human) = TAOK1 (human) (UniProt Q7L7X3)
SRPK1 (human) = SRPK1 (human) (UniProt Q96SB4)
PRKACA (human) = PRKACA (human) (UniProt P17612)
MAP2K2 (human) = MAP2K2 (human) (UniProt P36507)
Sequence of MAP2K2 (human) (P36507 whole entry, looked up): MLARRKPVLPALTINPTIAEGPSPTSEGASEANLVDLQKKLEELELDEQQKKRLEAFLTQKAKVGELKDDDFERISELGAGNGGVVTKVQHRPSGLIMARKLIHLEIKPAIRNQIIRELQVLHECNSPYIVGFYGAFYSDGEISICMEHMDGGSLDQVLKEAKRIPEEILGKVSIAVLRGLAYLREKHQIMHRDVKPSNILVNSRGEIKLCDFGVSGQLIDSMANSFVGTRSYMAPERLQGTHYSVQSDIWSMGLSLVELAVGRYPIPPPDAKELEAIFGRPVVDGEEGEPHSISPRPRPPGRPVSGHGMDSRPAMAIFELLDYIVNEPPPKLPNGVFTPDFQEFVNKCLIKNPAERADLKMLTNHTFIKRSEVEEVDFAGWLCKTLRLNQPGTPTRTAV

RIPK2 (human) = RIPK2 (human) (UniProt O43353)
AURKA (human) = AURKA (human) (UniProt O14965)
CSNK2A1 (human) = CSNK2A1 (human) (UniProt P68400)
Sequence of CSNK2A1 (human) (P68400 whole entry, looked up): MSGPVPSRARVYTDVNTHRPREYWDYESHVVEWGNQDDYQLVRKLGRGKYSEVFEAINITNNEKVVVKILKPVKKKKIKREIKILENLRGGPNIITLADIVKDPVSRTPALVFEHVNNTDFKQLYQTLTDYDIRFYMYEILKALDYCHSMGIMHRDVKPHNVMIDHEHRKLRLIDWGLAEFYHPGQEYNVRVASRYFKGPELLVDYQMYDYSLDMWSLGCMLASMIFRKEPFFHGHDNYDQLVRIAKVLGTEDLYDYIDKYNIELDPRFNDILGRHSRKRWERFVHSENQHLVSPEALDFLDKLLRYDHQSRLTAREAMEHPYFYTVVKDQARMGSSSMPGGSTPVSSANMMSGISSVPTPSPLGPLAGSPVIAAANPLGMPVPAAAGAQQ

EEF2K (human) = EEF2K (human) (UniProt O00418)
Sequence of EEF2K (human) (O00418 whole entry, looked up): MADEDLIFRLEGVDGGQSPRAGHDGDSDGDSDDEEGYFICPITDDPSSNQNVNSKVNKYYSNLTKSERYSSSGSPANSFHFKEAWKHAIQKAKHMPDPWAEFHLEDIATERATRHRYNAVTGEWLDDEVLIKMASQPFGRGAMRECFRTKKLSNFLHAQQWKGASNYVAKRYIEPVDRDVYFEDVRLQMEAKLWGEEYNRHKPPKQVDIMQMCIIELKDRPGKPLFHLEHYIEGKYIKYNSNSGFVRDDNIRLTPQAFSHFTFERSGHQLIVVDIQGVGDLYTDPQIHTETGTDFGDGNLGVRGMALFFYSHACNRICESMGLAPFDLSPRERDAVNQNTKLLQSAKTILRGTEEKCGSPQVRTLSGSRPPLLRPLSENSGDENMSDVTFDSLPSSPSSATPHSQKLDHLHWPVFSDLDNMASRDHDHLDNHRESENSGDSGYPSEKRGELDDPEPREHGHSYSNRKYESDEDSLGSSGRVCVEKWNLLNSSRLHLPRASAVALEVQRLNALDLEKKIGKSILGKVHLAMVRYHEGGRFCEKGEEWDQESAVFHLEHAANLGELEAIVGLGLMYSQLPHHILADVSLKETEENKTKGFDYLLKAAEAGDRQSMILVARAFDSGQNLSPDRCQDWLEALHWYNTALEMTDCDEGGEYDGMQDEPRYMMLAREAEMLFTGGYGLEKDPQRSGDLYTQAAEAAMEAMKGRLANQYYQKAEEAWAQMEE

PIM3 (human) = PIM3 (human) (UniProt Q86V86)
RPS6KA3 KD1 KD2 (human) = RPS6KA3 KD1 KD2 (human) (UniProt P51812)
EPHA2 (human) = EPHA2 (human) (UniProt P29317)
CDK2 CCNA2 (human) = CDK2 CCNA2 (human) (UniProt P20248+P24941)
MAP2K6 (human) = MAP2K6 (human) (UniProt P52564)
MAPK10 (human) = MAPK10 (human) (UniProt P53779)
Sequence of MAPK10 (human) (P53779 whole entry, looked up): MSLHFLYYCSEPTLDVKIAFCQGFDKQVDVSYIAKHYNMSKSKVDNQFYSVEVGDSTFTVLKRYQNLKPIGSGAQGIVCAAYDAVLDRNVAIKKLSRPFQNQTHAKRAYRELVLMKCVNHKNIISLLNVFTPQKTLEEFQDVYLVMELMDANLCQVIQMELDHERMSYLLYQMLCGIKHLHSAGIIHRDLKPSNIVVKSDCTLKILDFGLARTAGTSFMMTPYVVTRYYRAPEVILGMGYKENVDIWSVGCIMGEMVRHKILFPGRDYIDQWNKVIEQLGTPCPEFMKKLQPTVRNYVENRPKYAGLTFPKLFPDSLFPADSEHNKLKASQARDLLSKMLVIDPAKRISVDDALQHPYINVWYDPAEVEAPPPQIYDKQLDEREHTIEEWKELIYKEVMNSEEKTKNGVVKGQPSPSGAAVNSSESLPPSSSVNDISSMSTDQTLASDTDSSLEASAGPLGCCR

MAPKAPK3 (human) = MAPKAPK3 (human) (UniProt Q16644)
PRKCA (human) = PRKCA (human) (UniProt P17252)
[1] = system: PAK2 (human), Q13177 [T402E]
MST4 (human) = MST4 (human) (UniProt Q9P289)
MELK (human) = MELK (human) (UniProt Q14680)
PIM2 (human) = PIM2 (human) (UniProt Q9P1W9)
FLT1 (human) = FLT1 (human) (UniProt P17948)
[2] = system: SGK1 (human), O00141 [S422D]
Sequence of SGK1 (human), O00141 [S422D] (O00141 whole entry S422D, looked up): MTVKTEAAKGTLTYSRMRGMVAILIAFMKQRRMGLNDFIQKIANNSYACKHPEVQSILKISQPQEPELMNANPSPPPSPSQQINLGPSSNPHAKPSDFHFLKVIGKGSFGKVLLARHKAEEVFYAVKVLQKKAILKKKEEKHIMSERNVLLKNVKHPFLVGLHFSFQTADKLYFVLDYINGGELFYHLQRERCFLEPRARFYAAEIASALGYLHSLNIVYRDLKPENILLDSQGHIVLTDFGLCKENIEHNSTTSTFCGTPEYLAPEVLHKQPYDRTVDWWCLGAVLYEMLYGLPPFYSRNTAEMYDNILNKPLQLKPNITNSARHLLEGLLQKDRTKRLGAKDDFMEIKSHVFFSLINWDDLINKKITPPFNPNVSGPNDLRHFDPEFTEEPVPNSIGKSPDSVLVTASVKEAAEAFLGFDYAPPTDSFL

MAPK15 (human) = MAPK15 (human) (UniProt Q8TD08)

Sequence of CHEK1 (human) (O14757 whole entry, looked up): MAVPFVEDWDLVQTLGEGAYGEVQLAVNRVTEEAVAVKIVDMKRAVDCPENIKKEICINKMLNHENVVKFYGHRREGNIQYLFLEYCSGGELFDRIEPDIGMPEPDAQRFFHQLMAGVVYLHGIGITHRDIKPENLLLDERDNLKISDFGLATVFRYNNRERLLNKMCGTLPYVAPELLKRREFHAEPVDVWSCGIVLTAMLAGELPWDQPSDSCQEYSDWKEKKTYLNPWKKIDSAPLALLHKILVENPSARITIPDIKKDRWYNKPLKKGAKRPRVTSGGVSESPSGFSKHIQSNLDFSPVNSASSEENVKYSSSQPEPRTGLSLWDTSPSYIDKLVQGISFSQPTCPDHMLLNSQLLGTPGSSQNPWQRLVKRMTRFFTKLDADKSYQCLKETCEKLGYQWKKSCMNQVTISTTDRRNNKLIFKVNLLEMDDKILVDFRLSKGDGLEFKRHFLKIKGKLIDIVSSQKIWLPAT

residual activity (BRSK1 (human); compound 1.0 µM): 95%
residual activity (BRSK1 (human); compound 10.0 µM): 93%
residual activity (DYRK2 (human); compound 1.0 µM): 107%
residual activity (DYRK2 (human); compound 10.0 µM): 98%
residual activity (ERBB4 (human); compound 10.0 µM): 106%
residual activity (CHEK1 (human); compound 1.0 µM): 97%
residual activity (CHEK1 (human); compound 10.0 µM): 90%
residual activity (PHKG1 (human); compound 1.0 µM): 103%
residual activity (PHKG1 (human); compound 10.0 µM): 96%
residual activity (MINK1 (human); compound 1.0 µM): 106%
residual activity (MINK1 (human); compound 10.0 µM): 108%
residual activity (MAPK12 (human); compound 1.0 µM): 109%
residual activity (MAPK12 (human); compound 10.0 µM): 96%
residual activity (MAPKAPK5 (human); compound 1.0 µM): 100%
residual activity (MAPKAPK5 (human); compound 10.0 µM): 95%
residual activity (FGFR1 (human); compound 1.0 µM): 101%
residual activity (INSRR (human); compound 1.0 µM): 104%
residual activity (INSRR (human); compound 10.0 µM): 99%
residual activity (GCK (human); compound 1.0 µM): 106%
residual activity (GCK (human); compound 10.0 µM): 108%
residual activity (AURKB (human); compound 1.0 µM): 93%
residual activity (AURKB (human); compound 10.0 µM): 87%
residual activity (BTK (human); compound 1.0 µM): 119%
residual activity (BTK (human); compound 10.0 µM): 115%
residual activity (TAOK1 (human); compound 1.0 µM): 118%
residual activity (TAOK1 (human); compound 10.0 µM): 100%
residual activity (SRPK1 (human); compound 1.0 µM): 95%
residual activity (SRPK1 (human); compound 10.0 µM): 89%
residual activity (PRKACA (human); compound 1.0 µM): 90%
residual activity (PRKACA (human); compound 10.0 µM): 97%
residual activity (MAP2K2 (human); compound 1.0 µM): 58%
residual activity (MAP2K2 (human); compound 10.0 µM): 35%
residual activity (RIPK2 (human); compound 1.0 µM): 86%
residual activity (RIPK2 (human); compound 10.0 µM): 87%
residual activity (AURKA (human); compound 1.0 µM): 106%
residual activity (AURKA (human); compound 10.0 µM): 107%
residual activity (CSNK2A1 (human); compound 1.0 µM): 98%
residual activity (CSNK2A1 (human); compound 10.0 µM): 103%
residual activity (EEF2K (human); compound 1.0 µM): 83%
residual activity (EEF2K (human); compound 10.0 µM): 87%
residual activity (PIM3 (human); compound 1.0 µM): 111%
residual activity (PIM3 (human); compound 10.0 µM): 95%
residual activity (RPS6KA3 KD1 KD2 (human); compound 1.0 µM): 98%
residual activity (RPS6KA3 KD1 KD2 (human); compound 10.0 µM): 94%
residual activity (EPHA2 (human); compound 1.0 µM): 113%
residual activity (EPHA2 (human); compound 10.0 µM): 111%
residual activity (CDK2 CCNA2 (human); compound 1.0 µM): 103%
residual activity (CDK2 CCNA2 (human); compound 10.0 µM): 97%
residual activity (MAP2K6 (human); compound 1.0 µM): 106%
residual activity (MAP2K6 (human); compound 10.0 µM): 88%
residual activity (MAPK10 (human); compound 1.0 µM): 83%
residual activity (MAPK10 (human); compound 10.0 µM): 86%
residual activity (MAPKAPK3 (human); compound 1.0 µM): 92%
residual activity (MAPKAPK3 (human); compound 10.0 µM): 84%
residual activity (PRKCA (human); compound 10.0 µM): 118%
residual activity ([1]; compound 1.0 µM): 101%
residual activity ([1]; compound 10.0 µM): 100%
residual activity (MST4 (human); compound 1.0 µM): 105%
residual activity (MST4 (human); compound 10.0 µM): 102%
residual activity (MELK (human); compound 1.0 µM): 94%
residual activity (MELK (human); compound 10.0 µM): 98%
residual activity (PIM2 (human); compound 1.0 µM): 118%
residual activity (PIM2 (human); compound 10.0 µM): 96%
residual activity (FLT1 (human); compound 1.0 µM): 100%
residual activity (FLT1 (human); compound 10.0 µM): 107%
residual activity ([2]; compound 1.0 µM): 113%
residual activity ([2]; compound 10.0 µM): 100%
Structure (SMILES): Cc1ccc(=O)n(-c2ccccc2)c1
residual activity (MAPK15 (human); compound 1.0 µM): 95%
residual activity (MAPK15 (human); compound 10.0 µM): 86%

residual activity (BRSK1 (human); compound 10.0 µM): 102%
residual activity (BRSK1 (human); compound 50.0 µM): 124%
residual activity (DYRK2 (human); compound 10.0 µM): 102%
residual activity (DYRK2 (human); compound 50.0 µM): 101%
residual activity (ERBB4 (human); compound 10.0 µM): 80%
residual activity (ERBB4 (human); compound 50.0 µM): 76%
residual activity (CHEK1 (human); compound 1.0 µM): 82%
residual activity (CHEK1 (human); compound 10.0 µM): 95%
residual activity (CHEK1 (human); compound 50.0 µM): 95%
residual activity (PHKG1 (human); compound 1.0 µM): 110%
residual activity (PHKG1 (human); compound 10.0 µM): 89%
residual activity (PHKG1 (human); compound 50.0 µM): 81%
residual activity (MINK1 (human); compound 10.0 µM): 68%
residual activity (MINK1 (human); compound 50.0 µM): 76%
residual activity (MAPK12 (human); compound 1.0 µM): 93%
residual activity (MAPK12 (human); compound 10.0 µM): 95%
residual activity (MAPK12 (human); compound 50.0 µM): 89%
residual activity (MAPKAPK5 (human); compound 1.0 µM): 92%
residual activity (MAPKAPK5 (human); compound 10.0 µM): 91%
residual activity (MAPKAPK5 (human); compound 50.0 µM): 88%
residual activity (FGFR1 (human); compound 10.0 µM): 104%
residual activity (FGFR1 (human); compound 50.0 µM): 104%
residual activity (INSRR (human); compound 10.0 µM): 101%
residual activity (INSRR (human); compound 50.0 µM): 101%
residual activity (GCK (human); compound 10.0 µM): 87%
residual activity (GCK (human); compound 50.0 µM): 98%
residual activity (AURKB (human); compound 1.0 µM): 90%
residual activity (AURKB (human); compound 10.0 µM): 99%
residual activity (AURKB (human); compound 50.0 µM): 83%
residual activity (BTK (human); compound 10.0 µM): 104%
residual activity (BTK (human); compound 50.0 µM): 94%
residual activity (TAOK1 (human); compound 10.0 µM): 93%
residual activity (TAOK1 (human); compound 50.0 µM): 89%
residual activity (SRPK1 (human); compound 1.0 µM): 94%
residual activity (SRPK1 (human); compound 10.0 µM): 107%
residual activity (SRPK1 (human); compound 50.0 µM): 108%
residual activity (PRKACA (human); compound 1.0 µM): 82%
residual activity (PRKACA (human); compound 10.0 µM): 91%
residual activity (PRKACA (human); compound 50.0 µM): 93%
residual activity (MAP2K2 (human); compound 10.0 µM): 102%
residual activity (MAP2K2 (human); compound 50.0 µM): 92%
residual activity (RIPK2 (human); compound 10.0 µM): 104%
residual activity (RIPK2 (human); compound 50.0 µM): 90%
residual activity (AURKA (human); compound 10.0 µM): 107%
residual activity (AURKA (human); compound 50.0 µM): 111%
residual activity (CSNK2A1 (human); compound 10.0 µM): 86%
residual activity (CSNK2A1 (human); compound 50.0 µM): 86%
residual activity (EEF2K (human); compound 1.0 µM): 97%
residual activity (EEF2K (human); compound 10.0 µM): 61%
residual activity (EEF2K (human); compound 50.0 µM): 71%
residual activity (PIM3 (human); compound 10.0 µM): 97%
residual activity (PIM3 (human); compound 50.0 µM): 95%
residual activity (RPS6KA3 KD1 KD2 (human); compound 1.0 µM): 94%
residual activity (RPS6KA3 KD1 KD2 (human); compound 10.0 µM): 94%
residual activity (RPS6KA3 KD1 KD2 (human); compound 50.0 µM): 93%
residual activity (EPHA2 (human); compound 10.0 µM): 95%
residual activity (EPHA2 (human); compound 50.0 µM): 99%
residual activity (CDK2 CCNA2 (human); compound 1.0 µM): 90%
residual activity (CDK2 CCNA2 (human); compound 10.0 µM): 76%
residual activity (CDK2 CCNA2 (human); compound 50.0 µM): 80%
residual activity (MAP2K6 (human); compound 10.0 µM): 95%
residual activity (MAP2K6 (human); compound 50.0 µM): 81%
residual activity (MAPK10 (human); compound 1.0 µM): 88%
residual activity (MAPK10 (human); compound 10.0 µM): 85%
residual activity (MAPK10 (human); compound 50.0 µM): 89%
residual activity (MAPKAPK3 (human); compound 1.0 µM): 90%
residual activity (MAPKAPK3 (human); compound 10.0 µM): 93%
residual activity (MAPKAPK3 (human); compound 50.0 µM): 97%
residual activity (PRKCA (human); compound 1.0 µM): 88%
residual activity (PRKCA (human); compound 10.0 µM): 91%
residual activity (PRKCA (human); compound 50.0 µM): 95%
residual activity ([1]; compound 10.0 µM): 86%
residual activity ([1]; compound 50.0 µM): 91%
residual activity (MST4 (human); compound 10.0 µM): 102%
residual activity (MST4 (human); compound 50.0 µM): 100%
residual activity (MELK (human); compound 10.0 µM): 97%
residual activity (MELK (human); compound 50.0 µM): 92%
residual activity (PIM2 (human); compound 1.0 µM): 83%
residual activity (PIM2 (human); compound 10.0 µM): 104%
residual activity (PIM2 (human); compound 50.0 µM): 98%
residual activity (FLT1 (human); compound 10.0 µM): 84%
residual activity (FLT1 (human); compound 50.0 µM): 89%
residual activity ([2]; compound 1.0 µM): 89%
residual activity ([2]; compound 10.0 µM): 98%
Structure (SMILES): CCCC(CCC)C(=O)O
residual activity (MAPK15 (human); compound 1.0 µM): 90%
residual activity (MAPK15 (human); compound 10.0 µM): 86%
residual activity (MAPK15 (human); compound 50.0 µM): 94%
